Measurements: publication PMC11546610, “Molecular Modeling and In Vitro Functional Analysis of the RGS12 PDZ Domain Variant Associated with High-Penetrance Familial Bipolar Disorder” (International Journal of Molecular Sciences, 2024)
Substitutions are numbered along the chain they refer to. In names and notes the source's numbering stands. Residues, ends and D or L forms follow the SMILES beside them. *: point of attachment. Biotin = O=C1N[C@H]2[C@H](CS[C@H]2CCCCC(=O)*)N1; Ahx = NCCCCCC(=O)O

T1: R59Q-variant RGS12 PDZ domain GST-fusion protein (Homo sapiens, UniProt O14924, R59Q)
T1 construct: human RGS12 PDZ domain (aa 18–101 of UniProt O14924); purchased GenScript; host or cells: E. coli
T1 sequence (O14924 18-101 R59Q): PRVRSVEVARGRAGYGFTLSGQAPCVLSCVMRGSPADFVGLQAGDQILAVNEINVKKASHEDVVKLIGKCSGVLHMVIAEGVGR

T2: wildtype RGS12 PDZ domain GST-fusion protein (Homo sapiens, UniProt O14924)
T2 construct: human RGS12 PDZ domain (aa 18–101 of UniProt O14924); purchased GenScript; host or cells: E. coli
T2 sequence (O14924 18-101): T1 sequence (O14924 18-101 R59Q) with Q42R

T3: CXCR2 C-terminal peptide, biotin-Ahx-VGSSSGHTSTTL-carboxylic acid (SMILES …)
T3 construct: C-terminus of CXCR2; also called CXCR2 C-tail peptide TSTTL-COOH; CXCR2 TSTTL-COOH biosensor; source: synthetic peptide (GenScript)
T3 peptide: {Biotin-Ahx}-VGSSSGHTSTTL-OH

T4: SAPAP3 C-terminal peptide, biotin-Ahx-IYIPEAQTRL-carboxylic acid (human, SMILES …)
T4 construct: C-terminus of SAPAP3; the last ten residues of the human 20-mer aa 960-979; also called SAPAP3 C-tail peptide AQTRL-COOH; source: synthetic peptide (GenScript)
T4 peptide: {Biotin-Ahx}-IYIPEAQTRL-OH

T5: MEK2 C-terminal peptide, biotin-Ahx-RTLRLKQPSTPTRTAV-carboxylic acid (rat, SMILES …)
T5 construct: C-terminus of MEK2; also called MEK2 C-tail; TRTAV-COOH of MEK2; source: synthetic peptide (GenScript)
T5 peptide: {Biotin-Ahx}-RTLRLKQPSTPTRTAV-OH

B1: R59Q-variant human RGS12 PDZ domain GST-fusion protein (domain or fragment, UniProt O14924 18-101, looked up)
chain: T1 sequence (O14924 18-101 R59Q)
notes: human RGS12 PDZ domain, aa 18-101 of UniProt O14924, with the bipolar disorder-associated missense variation R59Q; R59Q is a variant found in families with bipolar disorder (Forstner et al.); also called R59Q-variant PDZ domain fusion protein; not shown: GST, N-terminal, kept

Legend:
[1] = target: T1, R59Q-variant RGS12 PDZ domain GST-fusion protein; experiment: SPR single-cycle kinetics (Alto), R59Q-variant PDZ domain; type: binding; conditions: for KD of R59Q variant relative to wildtype (fold less than the wildtype) / maximal binding signal (Rmax), R59Q in comparison to wildtype: R59Q vs wildtype, peptide biosensors, N = 2-4; for kon: R59Q, single trace in figure, 111 nM–9 μM analyte, PBS pH 7.3, 1:1 Langmuir with mass transport limitation, read-out: apparent on-rate (ka)
Description: (§1) Wildtype and R59Q-variant versions of the human RGS12 PDZ domain (aa 18–101 of UniProt O14924) were each cloned in frame with an N-terminal glutathione-S-transferase (GST) expression tag, expressed by E. coli fermentation, and purified by GST-affinity column and size-exclusion column chromatographies by GenScript. These recombinant GST-fusion proteins were stored at −80 °C in a storage buffer (150 mM NaCl, 10 mM Tris-HCl pH 7.6, 1 mM EDTA, 5 mM DTT, and 10% glycerol) prior to thawing and supplementation with 0.1% (final) Tween 20 for use in the SPR experiments.
Biotinylated peptides were separately immobilized onto streptavidin-coated gold nanosensor particles (Nicoya) in lane pairs. The reference sensor of the lane held either immobilized mNotch1 or rβ2AR peptide as an established negative control surface, and the test sensor held one of the candidate PDZ domain-interacting peptides. All on-board dilutions and experimental passages of analytes over immobilized peptides were performed with a running buffer consisting of phosphate-buffered saline (137 mM NaCl, 2.7 mM KCl, 4.3 mM disodium phosphate, 1.4 mM monopotassium phosphate; and pH 7.3, from Teknova) supplemented with 0.1% Tween 20 (Nicoya), […] (w/v) bovine serum albumin (BSA; Nicoya), and 3% glycerol (the latter to reduce bulk-shift readings when transitioning from running buffer to protein analyte injections). […] Each sensor was regenerated between each single-stack passage by the injection of a surface regeneration buffer (10 mM NaOH). Non-specific binding to the paired, negative control peptide-bound streptavidin surface was subtracted from each single-stack curve and then binding parameters of the on-rate (ka), off-rate (kd), and dissociation constant (KD) were calculated using the 1:1 Langmuir kinetics model with mass transport limitation (Alto software version 2.3.1; Nicoya). Observed maximal response units (Rmax) and calculated KD values for each single-stack injection were plotted using GraphPad Prism 10.

[2] = target: T2, wildtype RGS12 PDZ domain GST-fusion protein; experiment: SPR single-cycle kinetics (Alto), wildtype PDZ domain; type: binding; conditions: single trace in figure, 111 nM–9 μM analyte, PBS pH 7.3, 1:1 Langmuir with mass transport limitation, read-out: apparent on-rate (ka)
Description: as §1
Biotinylated peptides were separately immobilized onto streptavidin-coated gold nanosensor particles (Nicoya) in lane pairs. […] All on-board dilutions and experimental passages of analytes over immobilized peptides were performed with a running buffer consisting of phosphate-buffered saline (137 mM NaCl, 2.7 mM KCl, 4.3 mM disodium phosphate, 1.4 mM monopotassium phosphate; and pH 7.3, from Teknova) supplemented with 0.1% Tween 20 (Nicoya), […] (w/v) bovine serum albumin (BSA; Nicoya), and 3% glycerol (the latter to reduce bulk-shift readings when transitioning from running buffer to protein analyte injections). […] Observed maximal response units (Rmax) and calculated KD values for each single-stack injection were plotted using GraphPad Prism 10.

[3] = tested on: RGS12 PDZ domain protein fusions; conditions: yeast two-hybrid, far-western blotting, SPR; ref [19]; cited from earlier work
Source text: In our initial report identifying the PDZ domain within RGS12, we characterized its binding selectivity as being directed toward C-terminal (A/S)-T-X-(L/V) peptide motifs. […] Our subsequent report, characterizing RGS12 as a neuronal Ras/MAPK ...

[4] = target: T3, CXCR2 C-terminal peptide, …; experiment: SPR; Alto 8 × 2 digital microfluidics SPR (Nicoya); biotinylated peptides immobilised on streptavidin-coated gold nanosensors; GST-RGS12 PDZ fusion protein as analyte, single-cycle kinetics, 111 nM-9 μM; PBS pH 7.3 with 0.1% Tween 20, BSA, 3% glycerol; mNotch1 or rβ2AR reference sensor subtracted; 1:1 Langmuir model with mass transport limitation; apparent rates, estimated KD; conditions: both partners purified
[5] = target: T4, SAPAP3 C-terminal peptide, …; experiment: as above; conditions: both partners purified
[6] = target: T5, MEK2 C-terminal peptide, …; experiment: as above; conditions: both partners purified

Molecule | KD of R59Q variant relative to wildtype (fold less than the wildtype) [1] | maximal binding signal (Rmax), R59Q in comparison to wildtype [1] | kon [1] [M⁻¹ s⁻¹] | kon [2] [M⁻¹ s⁻¹] | binding to RGS12 PDZ domain fusions (in words) [3] | fold change of KD against the wild type [4] [fold] | fold change of KD against the wild type [5] [fold] | fold change of KD against the wild type [6] [fold]
CC(C)C[C@H](NC(=O)[C@@H](NC(=O)[C@@H](NC(=O)[C@H](CO)NC(=O)[C@@H](NC(=O)[C@H](Cc1c[nH]cn1)NC(=O)CNC(=O)[C@H](CO)NC(=O)[C@H](CO)NC(=O)[C@H](CO)NC(=O)CNC(=O)[C@@H](NC(=O)CCCCCNC(=O)CCCC[C@@H]1SC[C@@H]2NC(=O)N[C@@H]21)C(C)C)[C@@H](C)O)[C@@H](C)O)[C@@H](C)O)C(=O)O ({Biotin-Ahx}-VGSSSGHTSTTL-OH) | at least 2 fold | less maximal binding signal (Rmax) | 1500 | 1210 | – | – | – | –
CC[C@H](C)[C@H](NC(=O)CCCCCNC(=O)CCCC[C@@H]1SC[C@@H]2NC(=O)N[C@@H]21)C(=O)N[C@@H](Cc1ccc(O)cc1)C(=O)N[C@H](C(=O)N1CCC[C@H]1C(=O)N[C@@H](CCC(=O)O)C(=O)N[C@@H](C)C(=O)N[C@@H](CCC(N)=O)C(=O)N[C@H](C(=O)N[C@@H](CCCNC(=N)N)C(=O)N[C@@H](CC(C)C)C(=O)O)[C@@H](C)O)[C@@H](C)CC ({Biotin-Ahx}-IYIPEAQTRL-OH) | at least 2 fold | less maximal binding signal (Rmax) | 15400 | 1490 | – | – | – | –
TSTTL-COOH [CXCR2 C-tail pentamer used in docking and MD] | – | – | – | – | specific binding was observed | – | – | –
B1 | – | – | – | – | – | ≥ 2 | ≥ 2 | ≥ 2
